The results in this text go back to ChEMBL document CHEMBL1201862, “PubChem BioAssay data set” (2004).

Structures are written as SMILES.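 Tested at 5 concentrations; 48 h exposure; 96-well plates; endpoints linearly interpolated, else capped at highest concentration. GI50 = concentration required for 50% inhibition of growth.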 The source made the active and inactive calls. Cut-off read from the data, not from the text of the source: active = GI50 up to about 1.1 µM and inactive = higher.

Some test systems named below: Hs-578T; M14; NCI-H522; SNB-19; NCI/ADR-RES; NCI-H226; U-251; OVCAR-5; RXF 393; PC-3; HCT-15; UACC-257; HT-29; COLO 205; SK-MEL-5; HOP-92; CCRF-CEM; SK-MEL-28; A498; T47D.
What all share (assay): inhibition of tumour cell growth, NCI panel, 48 h

In the case of `CC(=O)O[C@H]1CC2C(C3CCC(C(C)CCC(N)=O)[C@]31C)[C@H](OC(C)=O)C[C@@H]1CC3(CC[C@]21C)OOC1(CC[C@]2(C)C4C[C@H](OC(C)=O)[C@]5(C)C(C(C)CCC(N)=O)CCC5C4[C@H](OC(C)=O)C[C@@H]2C1)OO3` (stereo partly drawn), the GI50 in the test on Hs-578T is 2.17 µM (inactive); in the test on M14 it was 1.95 µM (inactive); with NCI-H522 it was 2.18 µM (inactive); in the test with SNB-19 it was 2.61 µM (inactive); in the test on NCI/ADR-RES, 2.09 µM (inactive); with NCI-H226, 1.33 µM (inactive). For the same compound, the GI50 was 1.6 µM (inactive) with U-251; 1.69 µM (inactive) in the test on OVCAR-5; 1.61 µM (inactive) in the test on RXF 393; 1.41 µM (inactive) in the test on PC-3; 1.48 µM in the test on HCT-15; 1.49 µM (inactive) in the test with UACC-257. Moreover, the results for the GI50 in the test on HT-29, with COLO 205 and in the test with SK-MEL-5 were 1.63 µM (inactive), 1.11 µM (active) and 1.33 µM (inactive), respectively.

As to `Nc1cc(OCC2CCCCC2)nc(N)n1`, the GI50 in the test on Hs-578T, in the test on M14, in the test with NCI-H522, in the test on SNB-19, in the test with NCI/ADR-RES and with NCI-H226 was > 100 µM (inactive) each time. For the same compound, the GI50 in the test on HOP-92, with CCRF-CEM, with U-251, in the test with OVCAR-5, in the test on RXF 393 and with PC-3 was > 100 µM (inactive) each time. In addition, the GI50 in the test with SK-MEL-28 is > 100 µM (inactive); with HCT-15 it was greater than 100 µM; with UACC-257 it was 76.9 µM (inactive); in the test with HT-29, > 100 µM (inactive); in the test on COLO 205 it was 87.3 µM (inactive); in the test on SK-MEL-5, 37.5 µM (inactive).

Consider `Cc1cc(-c2cscn2)c(O)c([N+](=O)[O-])c1`, for which the GI50 was 28.7 µM (inactive) in the test on A498; 90.8 µM (inactive) in the test with Hs-578T; 90.4 µM (inactive) in the test on M14; > 100 µM (inactive) with SNB-19; 46.5 µM (inactive) in the test with NCI/ADR-RES; 93.5 µM (inactive) with HOP-92. For the same compound, the GI50 in the test on CCRF-CEM is 41 µM (inactive); in the test with OVCAR-5, > 100 µM (inactive); in the test on PC-3, 41.4 µM (inactive); in the test with HCT-15, 38.4 µM; in the test with UACC-257 it was 63.8 µM (inactive); with HT-29 it was 89.3 µM (inactive). Further, the GI50 in the test with COLO 205 is 28.3 µM (inactive); in the test with SK-MEL-5, 31 µM (inactive).

As to `O=C(CNc1ccc(Cl)cc1Cl)NC1C=Cc2ccc(S(=O)(=O)Nc3ccc(Cl)cc3Cl)cc2C1=O` (stereo not drawn), the GI50 in the test with Hs-578T, in the test with M14, with NCI-H522, in the test with SNB-19, with NCI/ADR-RES and in the test with NCI-H226 was > 100 µM (inactive) in each case. For the same compound, the GI50 in the test with HOP-92 was > 100 µM (inactive); in the test on CCRF-CEM, 9.18 µM (inactive); in the test on U-251, > 100 µM (inactive); in the test with OVCAR-5, > 100 µM (inactive); in the test with PC-3, > 100 µM (inactive); in the test with SK-MEL-28, > 100 µM (inactive). The GI50 is greater than 100 µM in the test on HCT-15, > 100 µM (inactive) in the test with UACC-257, > 100 µM (inactive) in the test on HT-29 and > 100 µM (inactive) in the test with COLO 205.

`Cc1ccccc1Nc1nc2c(s1)C(=O)c1ccccc1C2=O`: the GI50 in the test with A498 is 22.4 µM (inactive); in the test on M14 it was 5.82 µM (inactive); in the test with NCI-H522, 2.86 µM (inactive); with SNB-19 it was 7.21 µM (inactive); in the test with NCI-H226 it was 14.4 µM (inactive); in the test with HOP-92, 11.9 µM (inactive). Besides, the GI50 in the test with CCRF-CEM was 3.34 µM (inactive); in the test on U-251, 4.09 µM (inactive); in the test on T47D, 4.53 µM (inactive); in the test with OVCAR-5, 21.5 µM (inactive); with RXF 393, 8.87 µM (inactive); in the test on PC-3, 2.26 µM (inactive). The GI50 is 9.86 µM (inactive) in the test on SK-MEL-28; 3.78 µM with HCT-15; 5.5 µM (inactive) with UACC-257; 19.1 µM (inactive) in the test on HT-29; 16.8 µM (inactive) with COLO 205; 2.92 µM (inactive) in the test with SK-MEL-5.

For the compound `O=Cc1ccc2[nH]c(=O)oc2c1`, the GI50 with A498, with Hs-578T, in the test on M14, in the test on SNB-19, in the test with NCI/ADR-RES and with NCI-H226 was > 100 µM (inactive) throughout. The GI50 in the test on CCRF-CEM is 42.3 µM (inactive); with U-251, 84.5 µM (inactive); in the test on OVCAR-5, > 100 µM (inactive); with RXF 393, 94.8 µM (inactive); with PC-3, > 100 µM (inactive); with SK-MEL-28 it was > 100 µM (inactive). Further, the GI50 with HCT-15 was greater than 100 µM; in the test with UACC-257 it was > 100 µM (inactive); in the test with HT-29 it was > 100 µM (inactive); with COLO 205 it was > 100 µM (inactive).

As to `CC(C)(C)/N=c1/n(C(C)(C)C)oc(=O)n1-c1ccccc1`, the GI50 in the test on A498, with Hs-578T, in the test with M14, with NCI-H522, in the test with SNB-19 and in the test on NCI/ADR-RES was > 50 µM (inactive) in each case. Also, the GI50 in the test on NCI-H226, in the test with HOP-92, in the test with CCRF-CEM, in the test on U-251, with OVCAR-5 and in the test on RXF 393 was > 50 µM (inactive) throughout. Moreover, the GI50 with PC-3 is > 50 µM (inactive); with SK-MEL-28, > 50 µM (inactive); in the test on HCT-15, greater than 50 µM; in the test on UACC-257, > 50 µM (inactive); in the test with HT-29, > 50 µM (inactive); with COLO 205, > 50 µM (inactive). In addition, in the test on SK-MEL-5, the GI50 was > 50 µM (inactive).

As to `CC1(C)CCC[C@]2(C)[C@@H]1CC[C@@]13O[C@@H]1C1=C(CO)C(=O)OC1=C[C@@H]23`, the GI50 in the test on A498 was 27.2 µM (inactive); with M14, 15.8 µM (inactive); with NCI-H522, 10.1 µM (inactive); in the test on SNB-19 it was 13.6 µM (inactive); with NCI/ADR-RES it was 15.8 µM (inactive); in the test on NCI-H226, 15.7 µM (inactive). Also, the GI50 is 15.4 µM (inactive) in the test on HOP-92; 24.4 µM (inactive) with U-251; 9.71 µM (inactive) in the test with OVCAR-5; 19.9 µM (inactive) in the test with RXF 393; 14.9 µM (inactive) with PC-3; 16.6 µM (inactive) in the test on SK-MEL-28. In addition, the GI50 with HCT-15 is 14.4 µM; in the test with UACC-257 it was 18.2 µM (inactive); with HT-29 it was 14 µM (inactive); with COLO 205 it was 16.5 µM (inactive); in the test on SK-MEL-5, 15.5 µM (inactive).
